In patent US20010046498A1, “Chimeric prostate-homing peptides with pro-apoptotic activity” (priority 2000, published 2001):
Read-outs that look alike come from different tables or passages of the source. Bridge positions count the residues as written; N and C are the ends. Square brackets hold non-standard residues; d marks the D form. Peptide text beside a SMILES is read from it.

Assays:
[1] = system: tumor; experiment: Competition of GSL phage homing by free peptide; design: species or system mice; conditions: mouse, in vivo
Description: A third motif, GSL (glycine-serine-leucine), also was identified following in vivo panning in mice bearing breast carcinoma, malignant melanoma or Kaposi's sarcoma. Homing of phage expressing the GSL peptide, CGSLVRC (SEQ ID NO: 5), was inhibited by coadministration of the free CGSLVRC (SEQ ID NO: 5) peptide. Like the RGD and NGR peptides, phage expressing GSL peptides also bound to blood vessels of tumors. In view of the identification of the conserved RGD, NGR and GSL motifs present in tumor homing peptides, as disclosed herein, it will be recognized that peptides containing such motifs can be useful as tumor homing peptides and, in particular, for forming homing pro-apoptotic conjugates that can selectively deliver an […] peptide to a tumor.

[2] = system: normal human dermal microvessel endothelial cells (DMECs); format: cell-based; design: dose or concentration left out as unconfirmed; conditions: proliferation or cord formation
[3] = system: tumors derived from the human melanoma cell line C8161; experiment: Treatment of nude mice bearing C8161 melanoma xenografts; format: in vivo; conditions: similar experiments
Experimental: (§1) The activity of HPP-1 was tested in vivo using nude mice bearing human MDA-MD-435 breast carcinoma xenografts as follows. Briefly, MDA-MB-435 and C8161-derived tumor xenografts were established in 2 month-old female nude mice (Jackson Labs; Bar Harbor, Me.) as described in Arap et al., supra, 1998. After mice were anesthetized with a mixture of 2,2,2-tribromoethanol (Aldrich; Milwaukee, Wis.) and 2-methyl-butanol (Aldrich) prepared in distilled water, peptides were administered intravenously through the tail vein at a dose of 250 μg/week/mouse given slowly in a volume of 200 μl. Three-dimensional measurements of tumors were taken by caliper under anesthesia and used to calculate tumor volume (Pasqualini et al., supra, 1996).

[4] = system: dermal microvessel endothelial cells; experiment: Mitochondrial morphology of proliferating DMECs (MitoTracker Red / DAPI); format: cell-based, human; conditions: 60 μM peptide
Experimental: Mitochondrial morphology of dermal microvessel endothelial cells was assessed in proliferating cells after treatment with 60 μM HPP-1, […]-GG-D(KLAKLAK)2 or untargeted D(KLAKLAK)2 as follows. Dermal microvessel endothelial cells were stained after 24 and 72 hours treatment with peptide by incubation for 30 min at 37° C. with 100 nM mitochondrial stain MitoTracker Red™ (Molecular Probes, Inc., Eugene Oreg.) and 500 nM of the nuclear stain DAPI (Molecular Probes, Inc.). Mitochondria were subsequently visualized using fluorescence microscopy (100×) under an inverted microscope using a triple wavelength filter set (Nikon).

[5] = system: KS1767 cells; experiment: LC50 for KS1767 cells scored by apoptotic morphology; format: cell-based; conditions: proliferating KS1767 cells; read-out: LC50 KS1767 Prolif.
Experimental: (§2) Briefly, dermal microvessel endothelial cells (DMECs) were grown in CADMEC Growth Media™ (Cell Applications, Inc.; San Diego, Calif.). Dermal microvessel endothelial cells were then cultured under three experimental conditions: proliferation, 30% confluency in a growth media supplemented with 500 ng/ml human recombinant vascular endothelial growth factor (VEGF; Pharmingen); no proliferation, 100% confluency in media formulated to maintain a monolayer; and cord formation, 60% confluency (required for induction) in media formulated to induce cord formation. The KS1767 and MDA-MB-435 cells were cultured as described in Arap et al., supra, 1998; Hernier et al., supra, 1994).
(§3) Percent viability and LC50 (Table 1) were determined by apoptotic morphology as described in Ellerby et al., J. Neurosci. 17:6165-6178 (1997). For the percent viability assays, dermal microvessel endothelial cells were treated with 60 μM HPP-1 or control peptide D(KLAKLAK)2. At the indicated time points, cell culture medium was aspirated from adherent cells, and the cells were gently washed once with PBS at 37° C. […] At least 500 cells were scored for a given time point in each experiment. Percent viability was calculated relative to untreated controls. The LC50 for monolayer, proliferation (60% confluency), and cord formation were scored at 72 hours.

[6] = system: human MDA-MD-435 breast carcinoma xenografts; experiment: Treatment of nude mice bearing breast carcinoma xenografts; format: in vivo
Experimental: as §1

[7] = in vitro; format: cell-based; conditions: human; monolayer at 100% confluency; scored at 72 hours; means of three independent experiments; read-out: LC50 DMEC Angiostatic
Experimental: (§4) The effect of HPP-1 was assayed on normal human dermal microvessel endothelial cells (DMECs) under the angiogenic conditions of proliferation and cord formation. In addition, the effect of HPP-1 was assayed under the angiostatic condition of a monolayer maintained at 100% confluency (as described below).
as §2
as §3, with “C. Subsequently, a 20-fold dilution of the dye mixture (100 μg/ml acridine orange and 100 μg/ml ethidium bromide) in PBS was gently pipetted on the cells, which were viewed on an inverted microscope (Nikon TE 300).” for “C.”

[8] = system: normal human dermal microvessel endothelial cells (DMECs); experiment: in vitro; format: cell-based; conditions: for CC50: scored at 72 hours
Experimental: as §4, §2
as §3, with “C. Subsequently, a 20-fold dilution of the dye mixture (100 μg/ml acridine orange and 100 μg/ml ethidium bromide) in PBS was gently pipetted on the cells, which were viewed on an inverted microscope (Nikon TE 300).” for “C.”

[9] = system: MDA-MB-435 human breast carcinoma cells; experiment: LC50 for MDA-MB-435 cells scored by apoptotic morphology; format: cell-based
Experimental: as §2, §3

[10] = system: caspase activation in dermal microvessel endothelial cells; experiment: Caspase activity (DEVD-pNA hydrolysis) in DMEC lysates; format: cell-based, human; conditions: proliferating DMECs
Experimental: Characteristic caspase-3 processing was measured in dermal microvessel endothelial cell lysates as described in Ellerby et al., supra, 1997. Briefly, aliquots of cell lysates (1 μl lysate, 8-15 mg/ml) were added to 100 μM N-acetyl-Asp-Glu-Val-Asp-pNA (DEVD-pNA; BioMol; 100 μl, 100 mM HEPES, 10% sucrose, 0.1% CHAPS, 1 mM DTT, pH 7.0). Hydrolysis of DEVD-PNA was monitored spectrophotometrically (400 nm) at 25° C.

[11] = 250 μg/week/mouse intravenously

Compound | effect of coadministered free peptide on homing of CGSLVRC phage [1] | percent viability with time relative to untreated controls [2] | effect against C8161 melanoma tumors [3] | morphological indicators of apoptosis (nuclear condensation and fragmentation) ([4]; 72 hours) | cells with altered mitochondrial morphology ([4]; proliferating cells, before the cells rounded-up) | CC50 [5] [µM] | histopathological analysis of tumors [6, 11] | survival versus control groups [6, 11] | tumor volume versus controls [6, 11] | apoptotic cell death in tumors ([6]; histopathological analysis) | CC50 at 72 h [7] [µM] | LC50 for proliferating or migrating DMECs relative to LC50 for angiostatic DMECs ([8]; angiogenic versus angiostatic conditions) | CC50 ([8]; cord formation, read-out: LC50 DMEC Angiogenic Cord Form) [µM] | CC50 ([8]; proliferation with VEGF, read-out: LC50 DMEC Angiogenic Prolif.) [µM] | toxicity to MDA-MB-435 cells relative to KS1767 cells and angiogenic DMECs [9] | CC50 ([9]; proliferating MDA-MB-435 cells, read-out: LC50 MDA-MB-435 Prolif.) [µM] | apoptotic cell death by caspase activity [10]
CGSLVRC [GSL tumor homing peptide] | inhibited | – | – | – | – | – | – | – | – | – | – | – | – | – | – | – | –
CC(C)C[C@@H](NC(=O)[C@@H](CCCCN)NC(=O)CNC(=O)CNC(=O)[C@@H]1CSSC[C@H](N)C(=O)N[C@@H](CC(N)=O)C(=O)NCC(=O)N[C@@H](CCCNC(=N)N)C(=O)N1)C(=O)N[C@H](C)C(=O)N[C@H](CCCCN)C(=O)N[C@H](CC(C)C)C(=O)N[C@H](C)C(=O)N[C@H](CCCCN)C(=O)N[C@H](CCCCN)C(=O)N[C@H](CC(C)C)C(=O)N[C@H](C)C(=O)N[C@H](CCCCN)C(=O)N[C@H](CC(C)C)C(=O)N[C@H](C)C(=O)N[C@H](CCCCN)C(=O)O [HPP-1, CNGRC-GG-D(KLAKLAK)2] (H-CNGRCGG[dK][dL][dA][dK][dL][dA][dK][dK][dL][dA][dK][dL][dA][dK]-OH; disulfide 1-5) | – | decrease in percent viability with time | effective | exhibited the classic morphological indicators of apoptosis | approximately 80% | 42 | pronounced destruction of tumor architecture and widespread cell death | survival was longer | smaller, on average by one order of magnitude | about 50% | 481 | an order of magnitude lower | 34 | 51 | less toxic to MDA-MB-435 human breast carcinoma cells by approximately one order of magnitude | 415 | Apoptotic cell death was confirmed
